According to patent US6124323A, “4-substituted piperidine analogs and their use as subtype selective NMDA receptor antagonists” (Warner-Lambert Company, priority 1998, dated 2000):
Where a name gives a salt, the structure may show the parent alone.

Columns and labels:
Format in all cases: cell-based
[1] = target: T1, NMDA receptor subunits 1A/2A (Rattus norvegicus, UniProt P35439+Q00959); assay: Electrophysiological assay at NMDA receptor subunits expressed in Xenopus oocytes, 1A/2A; conditions: glutamate 100 μm and glycine 1-100 μm
T1 construct: expressed in transfected cells; host or cells: Xenopus laevis oocytes (cRNA injection; clones from Dr. P. H. Seeburg)
T1 sequence (Q00959 20-1464 limits assumed, other chains not shown): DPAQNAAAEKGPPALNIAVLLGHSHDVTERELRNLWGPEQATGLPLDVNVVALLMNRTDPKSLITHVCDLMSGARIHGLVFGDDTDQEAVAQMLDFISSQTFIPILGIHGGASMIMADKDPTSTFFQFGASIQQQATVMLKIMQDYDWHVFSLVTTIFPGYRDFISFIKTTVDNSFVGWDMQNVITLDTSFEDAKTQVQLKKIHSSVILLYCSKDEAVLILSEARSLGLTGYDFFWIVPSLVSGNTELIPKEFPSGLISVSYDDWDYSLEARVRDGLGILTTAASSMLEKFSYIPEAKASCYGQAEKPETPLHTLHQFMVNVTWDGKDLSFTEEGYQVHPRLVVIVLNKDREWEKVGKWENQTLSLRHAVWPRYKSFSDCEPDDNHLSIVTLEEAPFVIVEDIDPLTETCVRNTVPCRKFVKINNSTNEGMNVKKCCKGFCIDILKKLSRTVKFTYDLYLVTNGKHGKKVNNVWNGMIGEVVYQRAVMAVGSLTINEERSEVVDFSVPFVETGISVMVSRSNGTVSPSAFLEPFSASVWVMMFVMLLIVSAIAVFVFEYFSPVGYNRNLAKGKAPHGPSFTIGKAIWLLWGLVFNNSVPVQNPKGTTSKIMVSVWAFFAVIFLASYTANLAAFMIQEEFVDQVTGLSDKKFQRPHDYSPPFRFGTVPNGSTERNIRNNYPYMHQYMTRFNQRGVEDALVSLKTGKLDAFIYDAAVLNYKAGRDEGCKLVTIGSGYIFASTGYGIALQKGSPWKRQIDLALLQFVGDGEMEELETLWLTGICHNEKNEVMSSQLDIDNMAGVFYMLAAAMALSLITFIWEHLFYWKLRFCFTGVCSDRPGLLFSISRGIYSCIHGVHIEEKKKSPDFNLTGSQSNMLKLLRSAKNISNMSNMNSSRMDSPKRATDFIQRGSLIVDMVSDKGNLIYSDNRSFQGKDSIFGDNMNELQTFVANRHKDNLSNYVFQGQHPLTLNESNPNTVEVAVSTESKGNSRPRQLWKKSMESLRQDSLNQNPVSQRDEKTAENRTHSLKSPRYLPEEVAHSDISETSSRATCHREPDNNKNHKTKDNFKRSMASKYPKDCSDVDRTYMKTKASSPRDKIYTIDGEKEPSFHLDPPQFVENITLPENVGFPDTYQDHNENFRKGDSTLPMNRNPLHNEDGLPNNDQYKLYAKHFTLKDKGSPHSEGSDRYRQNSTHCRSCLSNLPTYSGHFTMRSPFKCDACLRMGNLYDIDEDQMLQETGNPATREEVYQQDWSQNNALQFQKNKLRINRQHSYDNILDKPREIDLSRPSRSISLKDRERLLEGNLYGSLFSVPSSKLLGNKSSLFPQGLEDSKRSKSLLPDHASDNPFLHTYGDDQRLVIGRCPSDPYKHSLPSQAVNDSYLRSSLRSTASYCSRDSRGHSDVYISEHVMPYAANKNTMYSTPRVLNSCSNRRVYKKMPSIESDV
Experimental: (§1) Many of the properties of native NMDA receptors are seen in recombinant homomeric NR1 receptors. These properties are altered by the NR2 subunits. Recombinant NMDA receptors expressed in Xenopus oocytes have been studied by voltage-clamp recording, as has developmental and regional expression of the mRNAs encoding NMDA receptor subunits. Electrophysiological assays were utilized to characterize the actions of compounds at NMDA receptors expressed in Xenopus oocytes. The compounds were assayed at four subunit combinations of cloned rat NMDA receptors, corresponding to three putative NMDA receptor subtypes [Moriyoshi, et al. Nature 1991, 354, 31-37; Monyer et al, Science 1992, 256, 1217-1221; Kutsuwada et al, Nature 1992, 358, 36-41; Sugihara et al, Biochem. Biophys Res. Commun. 1992, 185, 826-832].
(§2) Electrophysiological Assays at NMDA Receptor Subunits
(§3) Preparation of RNA. cDNA clones encoding the NR1A, NR2A, NR2B, NR2C and NR2D rat NMDA receptor subtypes were provided by Dr. P. H. Seeburg (see, Moriyoshi et al., Nature (Lond.) 354:31-37 (1991); Kutsuwada et al., Nature (Lond.) 358:36-41 (1992) Monyer et al., Science (Washington, D.C.) 256:1217-1221 (1992); Ikeda et al., FEBS Lett. 313:34-38 (1992); Ishii et al., J. Biol. Chem. 268:2836-2843 (1993) for details of these clones or their mouse homologs). The clones were transformed into appropriate host bacteria and plasmid preparations were made with conventional DNA purification techniques. A sample of each clone was linearized by restriction enzyme digestion and cRNA was synthesized with T3 RNA polymerase. The cRNA was diluted to 400 ng/μl and stored in 1 μl aliquots at -80° C. until injection.
(§4) The Xenopus oocyte expression system. Mature female Xenopus laevis were anaesthetized (20-40 min) using 0.15% 3-aminobenzoic acid ethyl ester (MS-222) and 2-4 ovarian lobes were surgically removed. Oocytes at developmental stages IV-VI (Dumont, J. N., J. Morphol. 136:153-180 (1972)), were dissected from the ovary still surrounded by enveloping ovarian tissues. Follicle-enclosed oocytes were micro-injected with 1:1 mixtures of cRNA:NR1A+NR2A, 2B, 2C or 2D; injecting ~2,5, or 20 ng of RNA encoding each receptor subunit. NR1A encoding cRNA was injected alone at ~20 ng. Oocytes were stored in Barth's medium containing (in mM):NaCl, 88; KCl, 1; CaCl2, 0.41; Ca(NO3)2, 0.33; MgSO4, 0.82 NaHCO3, 2.4; HEPES 5, pH 7.4, with 0.1 mg/ml gentamicin sulphate. While oocytes were still surrounded by enveloping ovarian tissues the Barth's medium was supplemented with 0.1% bovine serum. Oocytes were defolliculated 1-2 days following injections by treatment with collagenase (0.5 mg/ml Sigma Type I for 0.5-1 hr) (Miledi and Woodward, J. Physiol. (Lond.) 416:601-621 (1989)) and subsequently stored in serum-free medium.
(§5) Electrical recordings were made using a conventional two-electrode voltage clamp (Dagan TEV-200) over periods ranging between 3-21 days following injection. (Woodward et al., Mol. Pharmacol. 41: 89-103 (1992)). Oocytes were placed in a 0.1 ml recording chamber continuously perfused (5-15 ml min^-1 ) with frog Ringer's solution containing (in mM):NaCl, 115; KCl, 2; CaCl2, 1.8; HEPES, 5; pH 7.4. Drugs were applied by bath perfusion. Using oocytes expressing different subunit combinations of NMDA receptor, NMDA currents were activated by co-application of glutamate (100 μm) and glycine (1-100 μm). Inhibitory potency of the novel antagonists was assessed on responses elicited by fixed concentrations of glutamate and glycine, by measuring reductions in current induced by progressively increasing concentrations of antagonist. Concentration-inhibition curves were fit with equation 1.
(§6) I/Icontrol =1/(1+([antagonist]/10^-pIC50)^n) Eq. 1
(§7) in which Icontrol is the current evoked by agonists alone, pIC50 =-log IC50, IC50 is the concentration of antagonist that produces half maximal inhibition, and n is the slope factor. (De Lean et al., Am. J. Physiol. 235:E97-102 (1978)). […]

[2] = target: T2, NMDA receptor subunits 1A/2B (Rattus norvegicus, UniProt P35439+Q00960); assay: Electrophysiological assay at NMDA receptor subunits expressed in Xenopus oocytes, 1A/2B; conditions: Xenopus oocytes; glutamate 100 μm and glycine 1-100 μm; read-out: Subunits IC50, 1A/2B
T2 construct: expressed in transfected cells; host or cells: Xenopus laevis oocytes (cRNA injection; clones from Dr. P. H. Seeburg)
T2 sequence (Q00960 27-1482, other chains not shown): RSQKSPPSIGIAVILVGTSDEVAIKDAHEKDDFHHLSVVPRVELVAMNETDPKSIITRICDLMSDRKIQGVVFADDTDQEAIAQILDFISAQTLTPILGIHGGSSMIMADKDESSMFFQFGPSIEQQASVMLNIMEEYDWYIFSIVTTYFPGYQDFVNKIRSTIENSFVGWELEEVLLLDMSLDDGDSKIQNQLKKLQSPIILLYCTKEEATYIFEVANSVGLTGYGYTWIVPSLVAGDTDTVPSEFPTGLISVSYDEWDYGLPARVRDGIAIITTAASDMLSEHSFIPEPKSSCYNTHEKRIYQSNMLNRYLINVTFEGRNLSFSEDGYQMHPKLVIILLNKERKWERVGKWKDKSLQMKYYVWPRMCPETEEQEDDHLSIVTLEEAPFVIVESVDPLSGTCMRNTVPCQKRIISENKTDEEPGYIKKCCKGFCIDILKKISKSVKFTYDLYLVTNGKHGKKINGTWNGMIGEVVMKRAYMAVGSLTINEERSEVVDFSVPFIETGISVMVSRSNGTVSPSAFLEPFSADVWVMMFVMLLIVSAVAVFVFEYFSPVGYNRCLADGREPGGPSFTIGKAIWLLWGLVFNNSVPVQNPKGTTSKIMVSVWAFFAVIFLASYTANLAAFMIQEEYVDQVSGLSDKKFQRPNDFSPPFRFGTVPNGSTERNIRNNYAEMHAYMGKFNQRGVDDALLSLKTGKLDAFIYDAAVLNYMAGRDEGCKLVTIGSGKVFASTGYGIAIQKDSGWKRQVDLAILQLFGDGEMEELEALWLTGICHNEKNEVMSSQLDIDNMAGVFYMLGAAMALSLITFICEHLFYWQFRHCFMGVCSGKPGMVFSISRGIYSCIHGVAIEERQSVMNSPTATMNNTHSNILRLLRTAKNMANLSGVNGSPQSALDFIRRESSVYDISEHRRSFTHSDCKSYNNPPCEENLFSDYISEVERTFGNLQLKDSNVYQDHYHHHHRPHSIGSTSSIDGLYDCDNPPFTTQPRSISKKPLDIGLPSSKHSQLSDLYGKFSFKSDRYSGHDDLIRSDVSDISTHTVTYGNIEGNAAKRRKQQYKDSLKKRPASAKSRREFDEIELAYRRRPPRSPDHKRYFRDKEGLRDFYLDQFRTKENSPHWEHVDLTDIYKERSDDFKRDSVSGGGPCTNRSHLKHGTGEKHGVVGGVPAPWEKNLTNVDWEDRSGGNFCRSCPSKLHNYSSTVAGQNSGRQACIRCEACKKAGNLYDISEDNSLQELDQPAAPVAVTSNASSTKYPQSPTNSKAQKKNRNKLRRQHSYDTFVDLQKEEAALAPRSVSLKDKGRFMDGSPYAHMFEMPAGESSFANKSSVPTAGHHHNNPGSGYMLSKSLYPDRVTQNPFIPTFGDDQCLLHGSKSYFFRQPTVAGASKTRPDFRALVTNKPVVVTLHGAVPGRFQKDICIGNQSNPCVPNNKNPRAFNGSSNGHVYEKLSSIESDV
Experimental: as §1, §2, §3, §4, §5, §6, §7

[3] = target: T3, NMDA receptor subunits 1A/2C (Rattus norvegicus, UniProt P35439+Q00961); assay: Electrophysiological assay at NMDA receptor subunits expressed in Xenopus oocytes, 1A/2C; conditions: Xenopus oocytes; glutamate 100 μm and glycine 1-100 μm; read-out: Subunits IC50, 1A/2C
T3 construct: expressed in transfected cells; host or cells: Xenopus laevis oocytes (cRNA injection; clones from Dr. P. H. Seeburg)
T3 sequence (Q00961 20-1237, other chains not shown): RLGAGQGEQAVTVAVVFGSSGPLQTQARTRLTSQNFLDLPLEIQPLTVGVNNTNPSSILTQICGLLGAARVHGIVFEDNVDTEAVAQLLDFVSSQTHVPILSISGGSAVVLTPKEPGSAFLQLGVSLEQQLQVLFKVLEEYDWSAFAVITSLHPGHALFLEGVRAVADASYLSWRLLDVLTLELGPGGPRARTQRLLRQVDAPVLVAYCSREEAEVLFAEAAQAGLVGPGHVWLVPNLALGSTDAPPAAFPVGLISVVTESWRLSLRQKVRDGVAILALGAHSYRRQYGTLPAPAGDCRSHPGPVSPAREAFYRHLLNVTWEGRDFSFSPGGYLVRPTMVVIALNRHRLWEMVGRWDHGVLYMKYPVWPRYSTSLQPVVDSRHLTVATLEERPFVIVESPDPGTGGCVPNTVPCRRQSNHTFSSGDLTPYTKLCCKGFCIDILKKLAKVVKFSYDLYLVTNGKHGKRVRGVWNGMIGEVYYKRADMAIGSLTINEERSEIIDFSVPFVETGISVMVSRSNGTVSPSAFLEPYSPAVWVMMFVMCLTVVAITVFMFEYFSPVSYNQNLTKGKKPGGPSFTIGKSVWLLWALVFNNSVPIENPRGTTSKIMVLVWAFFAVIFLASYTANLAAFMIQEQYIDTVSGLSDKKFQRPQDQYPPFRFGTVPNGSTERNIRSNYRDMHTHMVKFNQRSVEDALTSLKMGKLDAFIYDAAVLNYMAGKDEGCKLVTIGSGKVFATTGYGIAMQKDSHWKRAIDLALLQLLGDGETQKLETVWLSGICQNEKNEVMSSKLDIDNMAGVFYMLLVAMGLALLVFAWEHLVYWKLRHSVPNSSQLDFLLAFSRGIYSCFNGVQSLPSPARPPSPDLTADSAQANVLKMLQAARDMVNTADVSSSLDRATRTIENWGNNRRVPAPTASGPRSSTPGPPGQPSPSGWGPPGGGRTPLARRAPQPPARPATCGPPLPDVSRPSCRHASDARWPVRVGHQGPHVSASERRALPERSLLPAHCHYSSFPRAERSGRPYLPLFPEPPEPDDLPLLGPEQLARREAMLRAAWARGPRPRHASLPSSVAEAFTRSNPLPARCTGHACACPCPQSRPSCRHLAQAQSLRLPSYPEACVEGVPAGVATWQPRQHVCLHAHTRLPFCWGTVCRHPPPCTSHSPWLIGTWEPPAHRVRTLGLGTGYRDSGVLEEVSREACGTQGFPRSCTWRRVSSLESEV
Experimental: as §1, §2, §3, §4, §5, §6, §7

IC50 [1] [µM]	IC50 [2] [µM]	IC50 [3] [µM]	SMILES
60	0.2	120	Cc1ccc(CC2CCN(CCOc3cccc(O)c3)CC2)cc1 [Ex. 160, 1-[2-(3-Hydroxyphenoxy)ethyl]-4-(4-methylbenzyl)piperidine hydrochloride]
85	0.04	170	Cc1ccc(CC2CCN(CCOc3ccccc3O)CC2)cc1 [Ex. 161, 1-[2-(2-Hydroxyphenoxy)ethyl]-4-(4-methylbenzyl)piperidine hydrochloride]
> 300	0.07	> 300	O=C1Cc2cc(OCCN3CCC(Cc4ccc(F)cc4)CC3)ccc2N1 [Ex. 195, 4-(4-Fluorobenzyl)-1-(2-(2-oxo-1,3-dihydroindol-5-oxy)ethyl)piperidine]
90	0.04	200	Cc1cc(OCCN2CCC(Cc3ccc(F)cc3)CC2)ccc1O [Ex. 152, 1-[2-(4-Hydroxy-3-methylphenoxy)ethyl]-4-(4-fluorobenzyl)piperidine hydrochloride]
130	0.5	140	Oc1cccc(OCCN2CCC(Cc3ccc(F)cc3)CC2)c1 [Ex. 159, 4-(4-Fluorobenzyl)-1-[2-(3-Hydroxyphenoxy)ethyl]piperidine hydrochloride]
35	0.1	> 300	CN(CCN1CCC(Cc2ccccc2)CC1)c1ccc(O)cc1 [Ex. 163, 4-Benzyl-1-(2-(N-methyl-4-hydroxyanilino)ethyl)piperidine dihydrochloride]
25	0.1	> 300	Oc1ccc2cc(OCCN3CCC(Cc4ccc(F)cc4)CC3)ccc2c1 [Ex. 191, 4-(4-Fluorobenzyl)-1-(2-(2-hydroxynaphth-6-oxy)ethyl)piperidine]

Continued, molecule first:

SMILES	IC50 [1] [µM]	IC50 [2] [µM]	IC50 [3] [µM]
CC(COc1ccccc1)N1CCC(Cc2ccccc2)CC1 (stereo not drawn) [Ex. 21, 4-Benzyl-1-(1-methyl-2-phenoxyethyl)piperidine hydrobromide]	45	2.5	> 100
c1ccc(OCCCN2CCC(c3ccccc3)CC2)cc1 [Ex. 7, 1-(3-Phenoxypropyl)-4-phenylpiperidine]	> 100	10	> 100
O=[N+]([O-])c1ccc(CC2CCN(CCCOc3ccccc3)CC2)cc1 [Ex. 37, 4-(4-Nitrobenzyl)-1-(3-phenoxypropyl)piperidine hydrobromide]	14	10	> 100
c1ccc(CC2CCN(CCOc3ccc4c(c3)OCO4)CC2)cc1 [Ex. 148, 1-[2-(3,4-Methylenedioxyphenoxy)ethyl]-4-benzylpiperidine hydrochloride]	105	3.8	135
Oc1ccc(OCCN2CCC(c3ccccc3)CC2)cc1 [Ex. 127, 1-[2-(4-Hydroxyphenoxy)ethyl]-4-phenylpiperidine hydrochloride]	70	5	> 300
c1ccc(CC2CCN(CCSc3ccccc3)CC2)cc1 [Ex. 144, 4-Benzyl-1-(2-thiophenoxyethyl)piperidine hydrochloride]	> 300	1.6	> 300
c1ccc(OCCCCN2CCC(c3ccccc3)CC2)cc1 [Ex. 9, 1-(4-Phenoxybutyl)-4-phenylpiperidine]	> 100	10	> 100
c1ccc(CC2CCN(CCOc3ccc4ncccc4c3)CC2)cc1 [Ex. 50]	75	5	> 100
O=[N+]([O-])c1ccc(CC2CCN(CCOc3ccc(F)cc3)CC2)cc1 [Ex. 36, 1-(2-(4-Fluorophenoxy)ethyl)-4-(4-nitrobenzyl)piperidine hydrobromide]	40	22	> 100
Nc1ccc(OCCN2CCC(Cc3ccccc3)CC2)cc1[N+](=O)[O-] [Ex. 56, 4-Benzyl-1-[2-(4-amino-3-nitrophenoxy)ethyl]piperidine]	90	1.1	> 100
